Literature values, collected in US10104888B2, “Tannin-chitosan composites” (WISCONSIN ALUMNI RESEARCH FOUNDATION, priority 2009, dated 2018).

Details: in vivo

poly(β-(1→4)-2-amino-2-deoxy-D-glucopyranose) [Chitosan]
LD50: > 16000 mg/kg
